{
  "source": "patent US6107059A",
  "about": "“Peptide library and screening method” (Affymax Technologies N.V., priority 1992, dated 2000)",
  "origin": "cited, not measured here",
  "target": "streptavidin (Streptomyces avidinii, UniProt P22629)",
  "sequence (P22629 25-183)": "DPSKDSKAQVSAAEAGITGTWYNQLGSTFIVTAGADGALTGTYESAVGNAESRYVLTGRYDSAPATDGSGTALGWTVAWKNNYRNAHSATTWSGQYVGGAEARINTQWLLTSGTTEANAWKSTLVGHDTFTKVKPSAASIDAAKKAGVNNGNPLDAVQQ",
  "conditions": "comparison in words, no number given",
  "data": [
    {"compound": "N=C1N[C@H]2[C@H](CS[C@H]2CCCCC(=O)O)N1", "note": "[iminobiotin]", "values": [
      {"measurement": "Kd for streptavidin, compared with biotin", "value": "much lower Kd"}
    ]}
  ]
}
